# In paper PMC6376031, “Enhanced anti-tumor activity of the Multi-Leu peptide PACE4 inhibitor transformed into an albumin-bound tumor-targeting prodrug” (Scientific Reports, 2019):
# Where a SMILES comes first, the peptide text is derived from it.
# Experiments:
# recombinant human PACE4 = target: T1, recombinant human PACE4 (Homo sapiens, UniProt P29122); assay: Enzyme kinetic inhibition of recombinant hPACE4; format: biochemical; settings: calculated from IC50 by Cheng and Prusoff, mean ± SD of three experiments
# T1 construct: made in house
# T1 sequence (P29122 150-969): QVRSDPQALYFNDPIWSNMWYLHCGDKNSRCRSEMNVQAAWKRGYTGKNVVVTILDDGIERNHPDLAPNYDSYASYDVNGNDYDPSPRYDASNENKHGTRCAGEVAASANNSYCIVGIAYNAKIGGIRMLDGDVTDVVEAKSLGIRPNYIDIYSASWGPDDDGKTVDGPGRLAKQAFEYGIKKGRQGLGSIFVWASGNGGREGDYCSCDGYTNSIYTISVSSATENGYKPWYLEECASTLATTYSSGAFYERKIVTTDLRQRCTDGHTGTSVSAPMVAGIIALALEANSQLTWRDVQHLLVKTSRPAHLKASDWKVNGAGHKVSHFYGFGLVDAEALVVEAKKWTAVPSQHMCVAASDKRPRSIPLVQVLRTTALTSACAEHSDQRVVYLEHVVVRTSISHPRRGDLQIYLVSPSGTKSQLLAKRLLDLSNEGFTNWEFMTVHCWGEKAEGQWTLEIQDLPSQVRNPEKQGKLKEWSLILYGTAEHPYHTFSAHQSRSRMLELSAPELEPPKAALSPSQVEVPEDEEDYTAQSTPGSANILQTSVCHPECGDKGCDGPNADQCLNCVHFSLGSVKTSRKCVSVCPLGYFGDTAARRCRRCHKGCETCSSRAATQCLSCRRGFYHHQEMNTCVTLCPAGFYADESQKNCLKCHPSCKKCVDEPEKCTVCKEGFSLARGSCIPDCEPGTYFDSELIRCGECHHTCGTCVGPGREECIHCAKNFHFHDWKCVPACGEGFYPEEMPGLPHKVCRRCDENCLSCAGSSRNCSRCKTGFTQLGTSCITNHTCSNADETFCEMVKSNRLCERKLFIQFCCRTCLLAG
# Description: (§1) The inhibitory constant (Ki) was calculated from the IC50 values using the equation of Cheng and Prusoff. Data are the mean ± SD of three independent experiments. The concentration of peptides that inhibited cell growth by 50% (IC50) was determined by MTT cell survival assays in DU145 and LNCaP cell lines. Data represent the mean ± SEM of three independent experiments. Acute cytotoxicity of the compounds at the selected concentrations was measured by lactate dehydrogenase (LDH) assay after 4 h of incubation with DU145 cells. […] Previously published compound: [a] ref.[12]. ML inhibitor was used as control and was re-assayed in presented experiments.
# Enzyme kinetic measurements were performed with recombinant hPACE4 as described previously. Enzyme and substrate concentrations used in the present study are presented in Supplementary Table S2.
# DU145 cells [1] = assay: LDH release acute cytotoxicity assay; format: cell-based; settings: for LDH release DU145: 4 h incubation, selected concentrations
# Description: as §1
# (§2) DU145 and LNCaP cells were maintained at low passages (below 30) and cultured in RPMI 1640 (Wisent Bioproducts, QC) with 5 and 10% fetal bovine serum, respectively. For MTT proliferation assays 3500 LNCaP (on poly-L-lysine coated wells) or 1500 DU145 cells were seeded in 96-well plates, and after 24 h, the cells were treated with various concentrations of inhibitors (from 300 to 1 μM). Next, the cells were incubated for 72 h with peptides prior to addition of MTT reagent (Sigma–Aldrich, Canada) at a final concentration of 1 mg/mL. Formazan salt was solubilized with 50 μL DMSO and the metabolic activity was normalized relatively to vehicle-treated cells (sterile bi-distilled water). IC50 values were determined using Prism 5.0 (GraphPad Software, USA), as previously described. For LDH assay, the LDH Cytotoxicity Detection Kit (Promega, USA) was used to quantify the release of lactate dehydrogenase following membrane disruption. As described in our previous work[15], DU145 cells were seeded at a density of 3000 cells/well and allowed to incubate for 24 h. Then, the media was subsequently replaced and cells were incubated with compounds at the selected concentration. Cells treated with 1% SDS were used as a control for maximal LDH release and further relative quantification.
# [2] = target: T2, mouse serum albumin (MSA) (Mus musculus, UniProt P07724); assay: MSA conjugation assay; format: binding; settings: PBS pH 7.4, 37 °C; RP-HPLC and MALDI-TOF
# T2 construct: purchased Equitech-Bio; Inc., USA
# Description: RP-HPLC and MALDI-TOF analysis were used to confirm completion of the reaction.
# in vitro = in vitro ADME; settings: mouse, plasma
# Description: Figure 1S. Plasma ex vivo stability profile of the ML and C23 inhibitor determined by Ultra Performance Liquid Chromatography (UPLC).
# [3] = design: method as in PMID 25682874; settings: cited from earlier work
# human PSA (hPSA) = target: T3, human PSA (hPSA) (Homo sapiens, UniProt P07288); assay: hPSA cleavage of prodrugs; format: biochemical; settings: extended incubation time up to 24 h; RP-HPLC
# T3 construct: enzymatically active hPSA extracted from seminal fluid (Millipore, USA); purchased Millipore, USA; host or cells: human seminal fluid
# Description: To determine PSA cleavage efficiency, peptide (125 µM final concentration; approximately 20 µg) were incubated with a final concentration of 20 µg/mL of enzymatically active hPSA extracted from seminal fluid (Millipore, USA) in 50 mM Tris buffer pH 7.4. Samples were analyzed by RP-HPLC (using 35 µL of the reaction solution) by comparing the resulting cleavage product over a standard curve generated using a synthetic cleaved peptide (peptides 1–4). The number of nmol of a cleaved peptide produced over time was then used to calculate the specific activity in pmol product/min/100 pmol PSA to compare the different substrate peptide between each other.
# DU145 cells [4] = settings: 72 h
# Description: as §1, §2
# LNCaP cells = settings: 72 h
# Description: as §1, §2
# [5] = 4 h incubation with DU145 cells at 100 μM
# T2 sequence (P07724 25-608): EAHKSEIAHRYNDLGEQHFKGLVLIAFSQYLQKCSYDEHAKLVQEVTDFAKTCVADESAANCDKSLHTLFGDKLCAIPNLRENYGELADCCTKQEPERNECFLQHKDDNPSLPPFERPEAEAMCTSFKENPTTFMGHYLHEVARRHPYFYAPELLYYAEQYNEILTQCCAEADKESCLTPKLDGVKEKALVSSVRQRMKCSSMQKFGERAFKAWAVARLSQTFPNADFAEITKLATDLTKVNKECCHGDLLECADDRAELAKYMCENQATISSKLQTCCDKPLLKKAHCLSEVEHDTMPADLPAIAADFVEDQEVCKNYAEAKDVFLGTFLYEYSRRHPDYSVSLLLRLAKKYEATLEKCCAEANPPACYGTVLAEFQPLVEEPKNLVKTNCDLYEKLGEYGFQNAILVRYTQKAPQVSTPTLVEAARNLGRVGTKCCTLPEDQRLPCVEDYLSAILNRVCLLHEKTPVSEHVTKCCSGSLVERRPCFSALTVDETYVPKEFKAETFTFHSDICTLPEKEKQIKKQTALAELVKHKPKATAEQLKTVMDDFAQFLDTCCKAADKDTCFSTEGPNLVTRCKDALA
# T3 sequence (P07288 25-261): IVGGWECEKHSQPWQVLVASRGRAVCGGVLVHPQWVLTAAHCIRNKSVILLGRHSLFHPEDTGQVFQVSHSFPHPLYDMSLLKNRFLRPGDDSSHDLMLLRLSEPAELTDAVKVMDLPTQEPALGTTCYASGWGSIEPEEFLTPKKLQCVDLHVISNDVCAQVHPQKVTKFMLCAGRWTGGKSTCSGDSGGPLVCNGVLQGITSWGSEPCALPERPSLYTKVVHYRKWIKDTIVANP
compound,measurement,setting,value
CC(C)C[C@H](NC(=O)COCCOCCNC(=O)[C@H](CC(C)C)NC(=O)[C@@H](N)CO)C(=O)N[C@@H](CC(C)C)C(=O)N[C@@H](CC(C)C)C(=O)N[C@@H](CC(C)C)C(=O)N[C@@H](CCCNC(=N)N)C(=O)N[C@H](C(=O)N[C@@H](CCCCN)C(=O)N[C@@H](CCCNC(=N)N)C(N)=O)C(C)C [Peptide 4] (HELM PEPTIDE1{S.L.[O=C(COCCOCCN[*:1])[*:2]].L.L.L.L.R.V.K.R.[am]}$$$$V2.0),Ki,recombinant human PACE4,62 ± 3 nM
same,LDH release relative to the untreated cells,DU145 cells [1]; [5],< 5%
same,LDH release DU145,DU145 cells [1],< 5%
EMC-RSSYYSLLLLLRVKR-NH2 ({EMC}-RSSYYSLLLLLRVKR-NH2) [Ligand 1],time to full conjugation to MSA,[2],1 h
EMC-RSSYYSL[4-Apaa]LLLLRVKR-NH2 [Ligand 2],time to full conjugation to MSA,[2],1 h
CC(C)C[C@H](NC(=O)CCCNC(=O)[C@H](CC(C)C)NC(=O)[C@@H](N)CO)C(=O)N[C@@H](CC(C)C)C(=O)N[C@@H](CC(C)C)C(=O)N[C@@H](CC(C)C)C(=O)N[C@@H](CCCNC(=N)N)C(=O)N[C@H](C(=O)N[C@@H](CCCCN)C(=O)N[C@@H](CCCNC(=N)N)C(N)=O)C(C)C [Peptide 3] (HELM PEPTIDE1{S.L.[O=C(CCCN[*:1])[*:2]].L.L.L.L.R.V.K.R.[am]}$$$$V2.0),Ki,recombinant human PACE4,56 ± 4 nM
same,LDH release relative to the untreated cells,DU145 cells [1]; [5],< 5%
same,LDH release DU145,DU145 cells [1],< 5%
"CC(=O)N[C@H](CC(C)C)C(=O)N[C@@H](CC(C)C)C(=O)N[C@@H](CC(C)C)C(=O)N[C@@H](CC(C)C)C(=O)N[C@@H](CCCNC(=N)N)C(=O)N[C@H](C(=O)N[C@@H](CCCCN)C(=O)NCc1ccc(C(=N)N)cc1)C(C)C [C23, Ac-[DLeu]LLLRVK-amidinobenzylamide] (HELM PEPTIDE1{[ac].[dL].L.L.L.R.V.K.[N=C(N)c1ccc(CN[*:1])cc1]}$$$$V2.0)",half-life,in vitro,104 ± 3.6 min
same,in vivo half-life (t1/2),[3],9 ± 3 min
same,time post-injection after which rapidly eliminated,[3]; radiolabeled version,20 min
MSA-EMC-RSSYYSLLLLLRVKR-NH2 [prodrug 1],release of the ML derivative by hPSA,human PSA (hPSA),no release product was detected
"Ac-LLLLRVKR-NH2 [ML, reference compound]",IC50,DU145 cells [4],90 ± 2 µM
same,IC50,LNCaP cells,130 ± 10 µM
same,LDH release DU145,DU145 cells [1],< 5%
same,half-life,in vitro,7.8 ± 2.3 min
CC(C)C[C@H](NC(=O)Cc1ccc(NC(=O)[C@H](CC(C)C)NC(=O)[C@@H](N)CO)cc1)C(=O)N[C@@H](CC(C)C)C(=O)N[C@@H](CC(C)C)C(=O)N[C@@H](CC(C)C)C(=O)N[C@@H](CCCNC(=N)N)C(=O)N[C@H](C(=O)N[C@@H](CCCCN)C(=O)N[C@@H](CCCNC(=N)N)C(N)=O)C(C)C [Peptide 2] (HELM PEPTIDE1{S.L.[O=C(Cc1ccc(N[*:1])cc1)[*:2]].L.L.L.L.R.V.K.R.[am]}$$$$V2.0),Ki,recombinant human PACE4,68 ± 10 nM
same,IC50,DU145 cells [4],19 ± 7 µM
same,IC50,LNCaP cells,50 ± 10 µM
same,LDH release relative to the untreated cells,DU145 cells [1]; 4 h incubation with DU145 cells at the IC50 concentration,< 5%
same,LDH release DU145,DU145 cells [1],< 5%
